Measurements as given in patent US7767648B2, “Tissue specific prodrugs” (priority 2000, dated 2010).
Numbered stars: 1 amine (or outer) side, 2 acyl side, 3 side chain; on linkers, the order of the positions; unused ones are H or OH. Square brackets hold non-standard residues; d marks the D form. Peptide text beside a SMILES is read from it. γGlu = O=C(O)[C@H](CCC(=O)[*:2])N[*:1]

What was measured:
[1] = Stability of PSMA substrates in human plasma, 18 hour incubation, HPLC; format: in vitro ADME; settings: for remaining at 18 h / % APA-Glu or -Asp: 18 hour incubation in human plasma; for remaining at 18 h: HPLC peak area of starting material over all peaks, read-out: % Prodrug Remaining; for % APA-Glu or -Asp: hydrolysis of substrate to APA-Asp or APA-Glu; for stability in serum (in words): species not stated
Text: (§1) In order that the prodrugs can be administered systemically via the blood, their stability in sera must be sufficiently high to avoid hydrolysis or other degradative processes which may occur prior to the prodrugs reaching their target tissues. In addition to GGH activity, a human blood plasma glutamate carboxypeptidase (PGCP) that has significant sequence homology to PSMA and glutamate carboxypeptidase activity has been identified. Therefore, to assay hydrolysis by GGH and other serum carboxypeptidases like PGCP, the APA-Glu*Glu*Glu*Glu*Asp, APA-Glu*Glu*Glu*Glu*Gln, and APA-Glu*Glu*Glu*Glu*Glu substrates were incubated in human and mouse plasma and hydrolysis determined by HPLC analysis after an 18-hour incubation, as shown in Table 3. As noted, GGH efficiently hydrolyzes poly-γ-glutamate chains as well as poly-γ-glutamated folate and methotrexate. GGH, however, is unable to hydrolyze α-linked peptides.
(§2) In Tables 1-3, to simplify identification of the type of amino acid linkages employed, α-linkages are denoted by a hyphen (for example, Glu-Glu) and all side-chain linkages are denoted by a star (for example, Glu*Glu). The column labeled “% PSMA Hydrolysis” refers to the percentage of hydrolysis of a substrate to APA-Asp or to APS-Glu by purified PSMA. The column labeled “% APA-Asp or -Glu” refers to the percentage of hydrolysis of substrate to APA-Asp or APA-Glu. The column labeled “% Prodrug Remaining” refers to the area of the HPLC peak attributable to starting material divided by the areas of HPLC peaks attributable to starting material, intermediate products, and final products. […] “ND” means “not determined,” in that the experiment was not performed.

[2] = Stability of PSMA substrates in mouse plasma, 18 hour incubation, HPLC; format: in vitro ADME; settings: for % APA-Glu or -Asp: 18 hour incubation in mouse plasma
Text: as §1, §2

[3] = Cytotoxic activity of thapsigargin and its debutanoyl derivative; format: cell-based; settings: cell line not stated
Description: The starting material for all the synthesized analogs is 8-O-debutanoylthapsigargin, which is easily available by triethylamine catalyzed methanolysis of thapsigargin. Removal of the butanoyl results in loss of cytotoxic activity with an LD50 of >50 μM compared to <100 nM for thapsigargin. Anhydrides of dicarboxylic acids of various lengths afforded analogs in which the acyl group attached to the O-8 ended in a free carboxylic acid. A dicyclohexylcarbodiimide (DCCI) promoted coupling of a 2,4-diaminoarene to the carboxylic acid analogs affords the derivatives in which contain a primary aromatic amine as a potential coupling point for additional moeities.

TSU cancer cells = test: Loss of clonogenic survival of TSU cancer cells after exposure to methotrexate analogs; format: cell-based; settings: 48 hours of exposure
Text: A number of methotrexate analogs were studied for their effect on clonogenic survival of TSU cancer cells. One such analog is L-aspartic acid, N-[4-[[(2,4-diamino-5-ethyl-6-quiazolinyl)methyl]amino]benzoyl]-sesquihydrate, also known as NSC 184692, available from the NCI Developmental Therapeutics Branch. Another compound is L-aspartic acid, N-[2-chloro-5-[[(2,4-diamino-5-methyl-6-quiazolinyl)methyl]amino]benzoyl]-dihydrate, also known as NSC 132483. Another compound is L-aspartic acid, N-[2-chloro-4-[[(2,4-diamino-6-pteridinyl)methyl]amino]benzoyl]-monohydrate, also known as NSC 134033.
The loss of clonogenic survival following treatment of TSU cancer cells with NSC 184692 and 132483 has been investigated after 48 hours of exposure, and the results are listed in Table 4.

PSMA = PSMA (Homo sapiens, UniProt Q04609); test: Hydrolysis of methotrexate analog substrates by purified PSMA (HPLC); format: biochemical; settings: for % PSMA hydrolysis 24 h / % PSMA hydrolysis 48 h: Table 3, hydrolysis of substrate to APA-Asp or APA-Glu by purified PSMA
PSMA, sequence (Q04609 whole entry): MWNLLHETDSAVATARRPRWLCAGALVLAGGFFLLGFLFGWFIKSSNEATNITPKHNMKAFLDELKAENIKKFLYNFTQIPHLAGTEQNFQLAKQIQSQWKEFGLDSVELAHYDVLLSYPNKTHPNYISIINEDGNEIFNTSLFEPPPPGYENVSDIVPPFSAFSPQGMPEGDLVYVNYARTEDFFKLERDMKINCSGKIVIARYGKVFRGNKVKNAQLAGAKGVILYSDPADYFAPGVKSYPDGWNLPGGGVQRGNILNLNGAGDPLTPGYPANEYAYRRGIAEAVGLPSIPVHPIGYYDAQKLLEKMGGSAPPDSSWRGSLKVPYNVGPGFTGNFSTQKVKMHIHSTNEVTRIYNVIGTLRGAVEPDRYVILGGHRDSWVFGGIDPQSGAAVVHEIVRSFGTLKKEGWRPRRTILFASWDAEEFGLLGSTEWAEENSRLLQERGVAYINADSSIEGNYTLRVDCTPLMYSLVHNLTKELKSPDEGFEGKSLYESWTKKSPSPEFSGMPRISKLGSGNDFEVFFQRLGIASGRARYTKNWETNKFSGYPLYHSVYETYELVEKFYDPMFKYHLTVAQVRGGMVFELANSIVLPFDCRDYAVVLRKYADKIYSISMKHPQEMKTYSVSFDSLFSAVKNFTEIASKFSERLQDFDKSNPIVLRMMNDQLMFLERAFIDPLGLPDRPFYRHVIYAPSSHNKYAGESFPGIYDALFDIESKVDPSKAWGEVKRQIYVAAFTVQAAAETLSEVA
Description: The extent to which various peptide substrates are hydrolyzed by PSMA was determined by synthesizing a series of methotrexate analogs including the 4-N[N-2,4-diamino-6-pteridinyl-methyl)-N-methylamino-benzoate] (APA) portion of methotrexate coupled to a variety of peptides. Poly-glutamated methotrexate is available from Schirks Laboratories in Jona, Switzerland.
A series of α-linked peptides were investigated for PSMA hydrolysis. […] In Tables 1-3, to simplify identification of the type of amino acid linkages employed, α-linkages are denoted by a hyphen (for example, Glu-Glu) and all side-chain linkages are denoted by a star (for example, Glu*Glu).
Substrate specificity for the pteroyl poly-γ-glutamyl carboxypeptidase (folate hydrolase) activity of PSMA was determined by synthesizing a series of γ-linked methotrexate analogs and assaying them for hydrolysis by PSMA.
as §2

prostate cancer cells = test: Induction of apoptotic death of prostate cancer cells; format: cell-based; settings: cell-proliferation independent
Description: The TG analog was synthesized by coupling the primary amine of 12ADT to the γ-carboxyl of glutamate, leaving the α-carboxyl of glutamate free to link to other amino acids, as shown in FIG. 2. The 12-ADT*Glu is a potent, cell-proliferation independent inducer of the apoptotic death of prostate cancer cells (LD50 is approximately 50 nM). The corresponding analog consisting of 12-ADT linked to the α-carboxyl of glutamate (that is, 12ADT-Glu) is also a suitable analog, as shown in FIG. 2. The prodrug containing 12ADT*Glu coupled to the longer amino acid chain (that is, 12ADT*Glu-Glu*Glu*Asp-Glu) can also be a suitable substrate. The 12ADT-Glu*Glu*Glu*Asp-Glu prodrug may also be cleaved by PSMA, which may cleave the last peptide bond in the absence of a free α-carboxyl. […] This analog can then be linked via either the α- or γ-carboxyl to a peptide chain.

## CN(Cc1cnc2nc(N)nc(N)c2n1)c1ccc(C(=O)N[C@@H](CC(=O)O)C(=O)N[C@@H](CCC(=O)N[C@@H](CCC(=O)N[C@@H](CC(=O)O)C(=O)N[C@@H](CCC(=O)O)C(=O)O)C(=O)O)C(=O)O)cc1 [APA-Asp-Glu*Glu*Asp-Glu]
[1]
  remaining at 18 h: 100%
  % APA-Glu or -Asp: 0%
[2]
  % APA-Glu or -Asp: 2%

## CN(Cc1cnc2nc(N)nc(N)c2n1)c1ccc(C(=O)N[C@@H](CCC(=O)N[C@@H](CCC(=O)N[C@@H](CCC(=O)N[C@@H](CC(=O)O)C(=O)N[C@@H](CCC(N)=O)C(=O)O)C(=O)O)C(=O)O)C(=O)O)cc1 [APA-Glu*Glu*Glu*Asp-Gln]
[1]
  remaining at 18 h: 76%
  % APA-Glu or -Asp: 13%

## N[C@@H](CCC(=O)N[C@@H](CCC(=O)N[C@@H](CCC(=O)N[C@@H](CC(=O)O)C(=O)N[C@@H](CCC(=O)O)C(=O)O)C(=O)O)C(=O)O)C(=O)O [Glu*Glu*Glu*Asp-Glu] ({γGlu-γGlu-γGlu}-Asp-Glu-OH; C-terminus assumed)
[1]
  stability in serum (in words): high stability in serum

## N[C@@H](CC(=O)O)C(=O)N[C@@H](CCC(=O)N[C@@H](CCC(=O)N[C@@H](CC(=O)O)C(=O)N[C@@H](CCC(=O)O)C(=O)O)C(=O)O)C(=O)O [Asp-Glu*Glu*Asp-Glu] (H-D[γGlu][γGlu]DE-OH; C-terminus assumed)
[1]; human plasma
  stability to hydrolysis in human plasma (in words): completely stable to hydrolysis
[2]; mouse plasma
  stability to hydrolysis in mouse plasma (in words): completely stable to hydrolysis

## O=C(O)c1cc[c]([Hg+])cc1.[OH-] [p-hydroxymercuribenzoate, reference compound]
[2]; addition of the non-specific inhibitor of GGH and other cysteine proteases
  effect of added inhibitor on hydrolysis of the substrates in plasma: complete inhibition of hydrolysis

## C/C=C(/C)C(=O)O[C@H]1C(C)=C2[C@H]([C@@H]1OC(=O)CCCCCCC)[C@@](C)(OC(C)=O)C[C@H](OC(=O)CCC)[C@@]1(O)[C@H]2OC(=O)[C@@]1(C)O [thapsigargin]
[3]
  LD50 (cytotoxic activity): < 0.1 µM

## CN(Cc1cnc2nc(N)nc(N)c2n1)c1ccc(C(=O)N[C@@H](CC(=O)O)C(=O)N[C@@H](CCC(=O)O)C(=O)O)cc1 [APA-Asp-Glu]
[1]
  remaining at 18 h: 99%
  % APA-Glu or -Asp: 1%
[1]; 18 hour incubation in human serum, HPLC
  hydrolysis in human serum (in words): no significant hydrolysis

## CN(Cc1cnc2nc(N)nc(N)c2n1)c1ccc(C(=O)N[C@@H](CCC(=O)N[C@@H](CCC(=O)N[C@@H](CCC(=O)N[C@@H](CC(=O)O)C(=O)N[C@@H](CCC(=O)O)C(=O)O)C(=O)O)C(=O)O)C(=O)O)cc1 [APA-Glu*Glu*Glu*Asp-Glu]
[1]
  remaining at 18 h: 57%
  % APA-Glu or -Asp: 23%
[2]
  % APA-Glu or -Asp: 5%

## CCc1c(CNc2ccc(C(=O)N[C@@H](CC(=O)O)C(=O)O)cc2)ccc2nc(N)nc(N)c12.CCc1c(CNc2ccc(C(=O)N[C@@H](CC(=O)O)C(=O)O)cc2)ccc2nc(N)nc(N)c12.O.O.O [NSC 184692, L-aspartic acid, N-[4-[[(2,4-diamino-5-ethyl-6-quiazolinyl)methyl]amino]benzoyl]-sesquihydrate]
TSU cancer cells; 0.01 μmolar
  Loss of clonogenic survival: 17%
TSU cancer cells; 0.05 μmolar
  Loss of clonogenic survival: 44%
TSU cancer cells; 0.1 μmolar
  Loss of clonogenic survival: 57%
TSU cancer cells; 0.5 μmolar
  Loss of clonogenic survival: 82%
TSU cancer cells; 1 μmolar
  Loss of clonogenic survival: 88%
TSU cancer cells; 5 μmolar
  Loss of clonogenic survival: 93%

## CN(Cc1cnc2nc(N)nc(N)c2n1)c1ccc(C(=O)N[C@@H](CCC(=O)N[C@@H](CCC(=O)N[C@@H](CCC(=O)N[C@@H](CCC(=O)N[C@@H](CCC(N)=O)C(=O)O)C(=O)O)C(=O)O)C(=O)O)C(=O)O)cc1 [APA-Glu*Glu*Glu*Glu*Gln]
[1]
  remaining at 18 h: 26%
  % APA-Glu or -Asp: 6%
PSMA
  % PSMA hydrolysis 24 h: 97%
  % PSMA hydrolysis 48 h: 100%
PSMA; text summary of the tables
  hydrolysis by PSMA (in words): to a greater extent after 24 hours than any of the γ-linked dipeptide analogs
[2]
  % APA-Glu or -Asp: 62%

## CN(Cc1cnc2nc(N)nc(N)c2n1)c1ccc(C(=O)N[C@@H](CCC(=O)N[C@@H](CCC(=O)N[C@@H](CCC(=O)N[C@@H](CCC(=O)N[C@@H](CCC(=O)O)C(=O)O)C(=O)O)C(=O)O)C(=O)O)C(=O)O)cc1 [APA-Glu*Glu*Glu*Glu*Glu, reference compound]
[1]
  remaining at 18 h: 11%
  % APA-Glu or -Asp: 11%
PSMA
  % PSMA hydrolysis 24 h: 96%
  % PSMA hydrolysis 48 h: 100%
[2]
  % APA-Glu or -Asp: 68%

## N-L-γ-glutamyl-12-aminododecanoyl-8-0-debutanoyl Thapsigargin [12-ADT*Glu]
Prostate cancer cells
  LD50 (apoptotic death of prostate cancer cells): approximately 50 nM

## C/C=C(/C)C(=O)O[C@H]1C(C)=C2[C@H]([C@@H]1OC(=O)CCCCCCC)[C@@](C)(OC(C)=O)C[C@H](O)[C@@]1(O)[C@H]2OC(=O)[C@@]1(C)O [8-O-debutanoylthapsigargin]
[3]
  LD50 (cytotoxic activity): > 50 µM

## NC(=O)CC[C@H](NC(=O)[C@H](CC(=O)O)NC(=O)CC[C@H](NC(=O)CC[C@H](NC(=O)CC[C@H](N)C(=O)O)C(=O)O)C(=O)O)C(=O)O [Glu*Glu*Glu*Asp-Gln] ({γGlu-γGlu-γGlu}-Asp-Gln-OH; C-terminus assumed)
[1]
  stability in serum (in words): high stability in serum

## Cc1c(CNc2ccc(Cl)c(C(=O)N[C@@H](CC(=O)O)C(=O)O)c2)ccc2nc(N)nc(N)c12.O.O [NSC 132483, L-aspartic acid, N-[2-chloro-5-[[(2,4-diamino-5-methyl-6-quiazolinyl)methyl]amino]benzoyl]-dihydrate]
TSU cancer cells; 0.01 μmolar
  Loss of clonogenic survival: 0%
TSU cancer cells; 0.05 μmolar
  Loss of clonogenic survival: 0%
TSU cancer cells; 0.1 μmolar
  Loss of clonogenic survival: 14%
TSU cancer cells; 0.5 μmolar
  Loss of clonogenic survival: 39%
TSU cancer cells; 1 μmolar
  Loss of clonogenic survival: 50%
TSU cancer cells; 5 μmolar
  Loss of clonogenic survival: 78%
